Experiments:
GLUT4myc = test: Cell surface GLUT4myc (GLUT4 translocation), OPD assay; type: cell-based, rat; settings: insulin 100 nM, 15 min; L6-GLUT4myc
Description: L6-GLUT4myc myotubes grown in 24-well plates were serum-starved for 4 h and were incubated with either CAME or CAEE (50 μM) for 18 h or insulin (100 nM) for 15 min. Cell-surface GLUT4myc levels were measured by an antibody-coupled colorimetric assay (Niu et al. [2003]) using O-phenylenediamine dihydrochloride (OPD) reagent (1 mL/well) (Sigma-Aldrich, St. Louis, MO), an anti-c-myc antibody (1:200 dilution; Santa Cruz Biotechnology, Santa Cruz, CA) and horseradish peroxidase (HRP)-conjugated goat anti-rabbit IgG at 4 °C (1:1000 dilution; Cell Signaling Technologies, Danvers, MA).
Figure 1. (A) CAME and CAEE increase ^3H-deoxyglucose uptake in L6 GLUT4myc myotubes. Cells were treated with 50 μM of either CAME, CAEE, or with vehicle (0.1% DMSO) for 18 h. 100 nM insulin served as the positive control and was applied for the last 15 min of the treatment in vehicle-treated cells. Glucose uptake was performed as described in Materials and Methods section. (B) CAME and CAEE stimulate GLUT4 translocation in L6 GLUT4myc myotubes. Cells were treated as previously described, cell surface GLUT4myc was detected by an enzyme-linked colorimetric assay. By the end of the treatment, L6- GLUT4myc cells were labeled with anti-c-myc antibody as described in Materials and Methods section. Results represent the means ± SEM of three independent experiments, and 3-4 cells were analyzed for each condition per experiment. *Indicates a significant (p ≤ 0.05) difference, **(p < 0.01) from the vehicle control group as assessed by ANOVA. […] L6 myotubes treated with CAME or CAEE (50 μM each), DMSO (0.1%) for 18 h. Insulin (100 nM) and AICAR (2 mM) both applied for 30 min and served as positive controls. Immunoblots were probed with anti phospho-AMPK (Thr 172), anti-GLUT4, anti-GLUT1 and anti-phospho-Akt (Ser 473) antibodies as described in Materials and Methods section. […] Data are expressed as (D) phospho-AMPK/β-actin, (E) GLUT4/β-actin and (F) GLUT1/β-actin and are given as mean ± SEM from 3 experiments. *p < 0.05 indicates a significant difference, **(p < 0.01) from the vehicle control group.

G6Pase = target: T1, G6Pase (Rattus norvegicus, UniProt P43428); test: Enzymatic activity of G6Pase in H4IIE cells; type: cell-based; settings: insulin 100 nM, same treatment period, relative to DMSO
T1 sequence (P43428 1-357): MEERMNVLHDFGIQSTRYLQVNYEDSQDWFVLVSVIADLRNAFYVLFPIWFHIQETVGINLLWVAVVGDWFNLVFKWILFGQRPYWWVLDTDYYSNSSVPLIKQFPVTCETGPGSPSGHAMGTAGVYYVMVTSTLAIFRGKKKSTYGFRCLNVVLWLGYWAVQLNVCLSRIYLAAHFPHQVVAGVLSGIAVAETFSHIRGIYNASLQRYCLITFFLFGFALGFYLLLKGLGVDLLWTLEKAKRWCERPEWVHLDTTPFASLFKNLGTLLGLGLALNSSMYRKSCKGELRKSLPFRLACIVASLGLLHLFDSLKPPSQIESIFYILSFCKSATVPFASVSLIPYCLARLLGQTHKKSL
Description: At 90% confluence, H4-IIE cells were treated with 12.5, 25, 50 and 100 μM of either CAME or CAEE in serum free medium. Vehicle (0.1% DMSO)-treated and 100 nM insulin-treated cells served as the negative and positive control respectively. The activity of G6Pase was assessed by measuring the rate of glucose production in the presence of a non-limiting amount of glucose-6-phosphate (G6P) as described elsewhere (Nachar et al. [2013]). Total glucose production was measured using a commercial glucose assay kit (AutoKit Glucose; Wako Diagnostics, Richmond, VA). Protein content was measured using bicinchoninic acid (BCA) assay (Simpson [2008]) and G6Pase activity was expressed in relation to protein content.
Figure 2. CAME and CAEE inhibit G6Pase by mechanisms involving activation of AMPK. (A) H4IIE hepatocytes were treated for 16 h with several concentrations (12.5, 25, 50 and100 μM) of either CAME or CAEE and G6Pase activity was determined colorimetrically using a commercial glucose assay kit as described under Materials and Methods. Data are expressed relative to vehicle control (0.1% DMSO, 0% inhibition). Insulin (100 nM) applied for similar treatment period served as the positive control. (B and C) Cells were treated with the optimal nontoxic concentration of either CAME, CAEE (50 μM each), or DMSO (0.1%) for 18 h, insulin (100 nM), AICAR (1 mM) applied for 30 min served as the positive controls. (B) The upper blot was probed with anti-phospho-AMPK antibody (Thr 172) and the lower blot was probed with anti-pan AMPK. (C) Blots were probed with antibodies against phospho-Akt (Ser 473) or pan-Akt. Immunoblots are representative of three independent experiments with similar results. (D) Data are expressed as phospho-AMPK/pan-AMPK and are given as mean ± SEM from 3 experiments. *p < 0.05 indicates a significant difference, **(p < 0.01), ***(p < 0.001) from the vehicle control group.

L6 GLUT4myc myotubes = test: 3H-Deoxyglucose uptake assay; type: cell-based, rat; settings: insulin 100 nM, 15 min
Description: Measurement of glucose uptake was performed as previously described (Eid et al. [2010]) using [^3H]-2-deoxyglucose (TRK-383, Amersham Biosciences, Buckinghamshire, UK). Nonspecific uptake was measured in the presence of cytochalasin B (10 μM) and was subtracted from all values.
Figure 1. (A) CAME and CAEE increase ^3H-deoxyglucose uptake in L6 GLUT4myc myotubes. Cells were treated with 50 μM of either CAME, CAEE, or with vehicle (0.1% DMSO) for 18 h. 100 nM insulin served as the positive control and was applied for the last 15 min of the treatment in vehicle-treated cells. Glucose uptake was performed as described in Materials and Methods section. (B) CAME and CAEE stimulate GLUT4 translocation in L6 GLUT4myc myotubes. Cells were treated as previously described, cell surface GLUT4myc was detected by an enzyme-linked colorimetric assay. By the end of the treatment, L6- GLUT4myc cells were labeled with anti-c-myc antibody as described in Materials and Methods section. Results represent the means ± SEM of three independent experiments, and 3-4 cells were analyzed for each condition per experiment. *Indicates a significant (p ≤ 0.05) difference, **(p < 0.01) from the vehicle control group as assessed by ANOVA. […] L6 myotubes treated with CAME or CAEE (50 μM each), DMSO (0.1%) for 18 h. Insulin (100 nM) and AICAR (2 mM) both applied for 30 min and served as positive controls. Immunoblots were probed with anti phospho-AMPK (Thr 172), anti-GLUT4, anti-GLUT1 and anti-phospho-Akt (Ser 473) antibodies as described in Materials and Methods section. Anti-β-actin antibody was used as a loading control. Representative blots are shown in panel C. Data are expressed as (D) phospho-AMPK/β-actin, (E) GLUT4/β-actin and (F) GLUT1/β-actin and are given as mean ± SEM from 3 experiments. *p < 0.05 indicates a significant difference, **(p < 0.01) from the vehicle control group.

AMPK = test: Western immunoblot phospho-AMPK in L6 myotubes; type: cell-based, rat; settings: AICAR 30 min (2 mM per Figure 1 legend, 1 mM per methods)
Description: L6 cells myotubes, H4IIE cells and 3T3-L1 adipocytes were treated with either CAME, CAEE (50 μM each) or vehicle (DMSO) for 18 h. Insulin (100 nM) or aminoimidazole carboxamide ribonucleotide (AICAR; 1 mM) were added to some vehicle-treated wells 30 min prior to the end of the treatment and served as the positives controls. Protein content was assayed by the bicinchoninic acid method (Thermo Scientific Pierce Protein Research, Rockford, IL) standardized to bovine serum albumin. Western immunoblotting was performed as described elsewhere (Eid et al. [2010]). Membranes were incubated overnight with phospho-AMPK, phospho-Akt, GLUT4, GLUT1 and β-actin antibodies (1:1000 dilution, Cell Signalling Technology, Danvers, MA), or with PPAR-γ, SREBP-1 (1:200, Santa Cruze Biotechnology, Santa Cruz, CA), followed by incubation with HRP-coupled secondary antibody (1:10,000) for 1 h. Immunoreactive bands were visualized by enhanced chemiluminescence and quantified by the Scion Image program (Scion Corporation, Frederick, MD). Experiments were repeated on 3 different passages of cells, each passage containing all conditions in parallel.
Figure 1. (A) CAME and CAEE increase ^3H-deoxyglucose uptake in L6 GLUT4myc myotubes. Cells were treated with 50 μM of either CAME, CAEE, or with vehicle (0.1% DMSO) for 18 h. 100 nM insulin served as the positive control and was applied for the last 15 min of the treatment in vehicle-treated cells. Glucose uptake was performed as described in Materials and Methods section. […] Cells were treated as previously described, cell surface GLUT4myc was detected by an enzyme-linked colorimetric assay. […] Results represent the means ± SEM of three independent experiments, and 3-4 cells were analyzed for each condition per experiment. *Indicates a significant (p ≤ 0.05) difference, **(p < 0.01) from the vehicle control group as assessed by ANOVA. […] Data are expressed as (D) phospho-AMPK/β-actin, (E) GLUT4/β-actin and (F) GLUT1/β-actin and are given as mean ± SEM from 3 experiments. *p < 0.05 indicates a significant difference, **(p < 0.01) from the vehicle control group.

| Compound | GLUT4 translocation, fold relative to DMSO (GLUT4myc) | inhibition of G6Pase activity (G6Pase) | glucose uptake, percent of DMSO control (L6 GLUT4myc myotubes) | 2-deoxyglucose uptake rate (L6 GLUT4myc myotubes; basal (DMSO) 10.1 ± 0.5) | AMPK phosphorylation, fold increase over DMSO (AMPK) |
| --- | --- | --- | --- | --- | --- |
| insulin: Insulin from bovine pancreas, positive control (100 nM) | 1.73 ± 0.18 fold | 70.7 ± 2.3% | 175 ± 13% | 17.7 ± 1.2 pmol/min/mg protein |  |
| NC(=O)c1ncn([C@@H]2O[C@H](CO)[C@@H](O)[C@H]2O)c1N [AICAR, aminoimidazole carboxamide ribonucleotide, reference compound] |  |  |  |  | 8.5 fold |

Source: paper PMC6130489, “Caffeic acid methyl and ethyl esters exert potential antidiabetic effects on glucose and lipid metabolism in cultured murine insulin-sensitive cells through mechanisms implicating activation of AMPK” (Pharmaceutical Biology, 2017)
